In the test the test system is HCT-116. Put plainly: Cytotoxicity in human HCT116 cells assessed as reduction in cell viability incubated for 48 hrs by MTS assay. It is filed as functional, cell-based. On the technique in general: Tetrazolium dyes change colour on reduction, which living cells bring about.
Setting [1] is: Homo sapiens, HCT-116, 48 h, read-out: IC50.

Molecules are shown by their SMILES.

Take `COc1cc(-c2c3n(c4c(=O)oc5cc(O)c(OC)cc5c24)CCc2c-3cc(OC)c(OC)c2O)ccc1O`: the half-maximal inhibitory concentration (IC50) under setting [1] came out at 4.3 µM.
Turning to `COc1cc(-c2c3c4cc(OC)c(OS(=O)(=O)O)cc4oc(=O)c3n3ccc4cc(OC)c(OC)cc4c23)ccc1O`, the 50% inhibitory concentration (IC50) result (hct-116) was “Not Active”.
For `COc1ccc(-c2c3n(c4c(=O)oc5cc(OS(=O)(=O)O)c(OC)cc5c24)CCc2c-3cc(OC)c(OC)c2O)cc1O`, the IC50 result (hct-116) was “Not Active”.
As for `COc1cc(-c2c3c4cc(OC)c(O)cc4oc(=O)c3n3ccc4cc(OS(=O)(=O)O)c(OC)cc4c23)ccc1O`, the half-inhibitory concentration (IC50) under setting [1] is 9.7 µM.
For the molecule `COc1cc(-c2c3n(c4c(=O)oc5cc(OS(=O)(=O)O)c(OC)cc5c24)CCc2c-3cc(OC)c(OC)c2O)ccc1O`, where the note is “hct-116”, the IC50 result is “Not Active”.
Still for that read-out and setting: the entry for `COc1ccc(-c2c3n(c4c(=O)oc5cc(OS(=O)(=O)O)c(O)cc5c24)CCc2cc(OC)c(O)cc2-3)cc1O` is “Not Active”; for `COc1cc(-c2c3n(c4c(=O)oc5cc(OS(=O)(=O)O)c(OC)cc5c24)CCc2cc(OC)c(OC)cc2-3)ccc1O` it is “Not Active”.

Usually IC50 stands for the concentration at which inhibition is half-maximal.
